Measured values published in the NIST ThermoML archive (doi:10.1016/j.jct.2016.01.019).
Numbers after ± are expanded uncertainties.

Test: refractive index (other wavelength) (dimensionless); xn = mol fraction of the nth substance listed
Conditions: 94.64 kPa, Liquid, Standard Abbe refractometry

OCCCO [propan-1,3-diol] + CC(O)CO
refractive index
Conditions	x2 = 0	x2 = 0.0985	x2 = 0.2023	x2 = 0.3015	x2 = 0.3961	x2 = 0.5009	x2 = 0.5961	x2 = 0.6965	x2 = 0.7974	x2 = 0.8985
308.15 K, Wavelength=404.7 nm	1.44755 ± 0.002	1.44681 ± 0.002	1.44642 ± 0.002	1.44583 ± 0.002	1.44528 ± 0.002	1.44466 ± 0.002	1.44403 ± 0.002	1.44294 ± 0.002	1.44202 ± 0.002	1.44072 ± 0.002
308.15 K, Wavelength=435.8 nm	1.44419 ± 0.002	1.44355 ± 0.002	1.44296 ± 0.002	1.44258 ± 0.002	1.44194 ± 0.002	1.44132 ± 0.002	1.4406 ± 0.002	1.43962 ± 0.002	1.43868 ± 0.002	1.43738 ± 0.002
308.15 K, Wavelength=486.1 nm	1.44027 ± 0.002	1.43972 ± 0.002	1.43922 ± 0.002	1.43857 ± 0.002	1.43806 ± 0.002	1.43743 ± 0.002	1.43673 ± 0.002	1.43585 ± 0.002	1.43482 ± 0.002	1.43353 ± 0.002
308.15 K, Wavelength=546.1 nm	1.43699 ± 0.002	1.43636 ± 0.002	1.43579 ± 0.002	1.43522 ± 0.002	1.4348 ± 0.002	1.43417 ± 0.002	1.43347 ± 0.002	1.43254 ± 0.002	1.43163 ± 0.002	1.43033 ± 0.002
308.15 K, Wavelength=587.6 nm	1.43529 ± 0.002	1.43471 ± 0.002	1.434 ± 0.002	1.43353 ± 0.002	1.4331 ± 0.002	1.43247 ± 0.002	1.43187 ± 0.002	1.43093 ± 0.002	1.42993 ± 0.002	1.42865 ± 0.002
308.15 K, Wavelength=632.8 nm	1.43375 ± 0.002	1.43302 ± 0.002	1.4324 ± 0.002	1.432 ± 0.002	1.43158 ± 0.002	1.43095 ± 0.002	1.43034 ± 0.002	1.42938 ± 0.002	1.42838 ± 0.002	1.42712 ± 0.002
308.15 K, Wavelength=644 nm	1.4334 ± 0.002	1.43286 ± 0.002	1.4322 ± 0.002	1.43185 ± 0.002	1.43123 ± 0.002	1.43061 ± 0.002	1.43 ± 0.002	1.42895 ± 0.002	1.42803 ± 0.002	1.42677 ± 0.002
308.15 K, Wavelength=706.5 nm	1.4317 ± 0.002	1.43089 ± 0.002	1.4305 ± 0.002	1.42987 ± 0.002	1.42955 ± 0.002	1.42893 ± 0.002	1.42834 ± 0.002	1.42729 ± 0.002	1.42637 ± 0.002	1.42508 ± 0.002
313.15 K, Wavelength=404.7 nm	1.44615 ± 0.002	1.44547 ± 0.002	1.44484 ± 0.002	1.44421 ± 0.002	1.44353 ± 0.002	1.4429 ± 0.002	1.44213 ± 0.002	1.4412 ± 0.002	1.44027 ± 0.002	1.4391 ± 0.002
313.15 K, Wavelength=435.8 nm	1.4428 ± 0.002	1.44212 ± 0.002	1.44145 ± 0.002	1.44077 ± 0.002	1.44021 ± 0.002	1.43956 ± 0.002	1.43886 ± 0.002	1.43787 ± 0.002	1.43694 ± 0.002	1.43576 ± 0.002
313.15 K, Wavelength=486.1 nm	1.43888 ± 0.002	1.43822 ± 0.002	1.43758 ± 0.002	1.43688 ± 0.002	1.43634 ± 0.002	1.43565 ± 0.002	1.435 ± 0.002	1.43401 ± 0.002	1.43313 ± 0.002	1.43193 ± 0.002
313.15 K, Wavelength=546.1 nm	1.43562 ± 0.002	1.43502 ± 0.002	1.4344 ± 0.002	1.43385 ± 0.002	1.43312 ± 0.002	1.43257 ± 0.002	1.43175 ± 0.002	1.43082 ± 0.002	1.42992 ± 0.002	1.42873 ± 0.002
313.15 K, Wavelength=587.6 nm	1.43392 ± 0.002	1.43331 ± 0.002	1.43262 ± 0.002	1.43194 ± 0.002	1.43132 ± 0.002	1.43077 ± 0.002	1.43006 ± 0.002	1.42912 ± 0.002	1.42824 ± 0.002	1.42705 ± 0.002
313.15 K, Wavelength=632.8 nm	1.43238 ± 0.002	1.43157 ± 0.002	1.43095 ± 0.002	1.43031 ± 0.002	1.42988 ± 0.002	1.42924 ± 0.002	1.42852 ± 0.002	1.42758 ± 0.002	1.42673 ± 0.002	1.42553 ± 0.002
313.15 K, Wavelength=644 nm	1.43203 ± 0.002	1.43122 ± 0.002	1.43065 ± 0.002	1.42997 ± 0.002	1.42954 ± 0.002	1.429 ± 0.002	1.42818 ± 0.002	1.42724 ± 0.002	1.42638 ± 0.002	1.42518 ± 0.002
313.15 K, Wavelength=706.5 nm	1.43035 ± 0.002	1.42953 ± 0.002	1.42898 ± 0.002	1.4284 ± 0.002	1.42788 ± 0.002	1.42723 ± 0.002	1.42653 ± 0.002	1.42558 ± 0.002	1.4247 ± 0.002	1.42352 ± 0.002
318.15 K, Wavelength=404.7 nm	1.44474 ± 0.002	1.44416 ± 0.002	1.44346 ± 0.002	1.44271 ± 0.002	1.4421 ± 0.002	1.44134 ± 0.002	1.44059 ± 0.002	1.43957 ± 0.002	1.43859 ± 0.002	1.43751 ± 0.002
318.15 K, Wavelength=435.8 nm	1.44141 ± 0.002	1.44072 ± 0.002	1.44015 ± 0.002	1.43938 ± 0.002	1.43872 ± 0.002	1.438 ± 0.002	1.43725 ± 0.002	1.43624 ± 0.002	1.43526 ± 0.002	1.43417 ± 0.002
318.15 K, Wavelength=486.1 nm	1.43754 ± 0.002	1.43671 ± 0.002	1.43608 ± 0.002	1.43535 ± 0.002	1.43468 ± 0.002	1.43396 ± 0.002	1.43322 ± 0.002	1.43243 ± 0.002	1.43145 ± 0.002	1.43035 ± 0.002
318.15 K, Wavelength=546.1 nm	1.43429 ± 0.002	1.43372 ± 0.002	1.43312 ± 0.002	1.43243 ± 0.002	1.43177 ± 0.002	1.43107 ± 0.002	1.43022 ± 0.002	1.42925 ± 0.002	1.42827 ± 0.002	1.42718 ± 0.002
318.15 K, Wavelength=587.6 nm	1.43261 ± 0.002	1.43191 ± 0.002	1.43127 ± 0.002	1.43053 ± 0.002	1.42988 ± 0.002	1.42918 ± 0.002	1.42854 ± 0.002	1.42758 ± 0.002	1.42659 ± 0.002	1.42551 ± 0.002
318.15 K, Wavelength=632.8 nm	1.43109 ± 0.002	1.43037 ± 0.002	1.42963 ± 0.002	1.42894 ± 0.002	1.42826 ± 0.002	1.42752 ± 0.002	1.42682 ± 0.002	1.42606 ± 0.002	1.42507 ± 0.002	1.424 ± 0.002
318.15 K, Wavelength=644 nm	1.43075 ± 0.002	1.43013 ± 0.002	1.4294 ± 0.002	1.42884 ± 0.002	1.42811 ± 0.002	1.42748 ± 0.002	1.42668 ± 0.002	1.42572 ± 0.002	1.42473 ± 0.002	1.42365 ± 0.002
318.15 K, Wavelength=706.5 nm	1.42908 ± 0.002	1.42827 ± 0.002	1.4276 ± 0.002	1.42698 ± 0.002	1.42645 ± 0.002	1.42575 ± 0.002	1.425 ± 0.002	1.42406 ± 0.002	1.42308 ± 0.002	1.42199 ± 0.002
